Measured values: PubChem BioAssay AID196 (DTP/NCI, 2004)
“And” between values parts separate entries of the source, which are not always exact repeats. Equal entries are not always repeated. Toxic doses and inconclusive results are not listed.

Test system: BDF1 mice, intracerebral B16 melanoma, median survival T/C
Assay: NCI In Vivo Anticancer Drug Screen. Data for tumor model B16 Melanoma (intracerebral) in B6D2F1 (BDF1) mice
Details: endpoint: median survival time, higher = longer survival
Experimental: The antitumor activity of compounds was measured in mice bearing transplantable tumors. Survival or tumor size were measured and the results are expressed as the measurement made in the treated group (T) divided by the measurement made in the vehicle treated control group (C). The tumor model used in this assay is B16 Melanoma (intracerebral) in B6D2F1 (BDF1) mice

[1] = dose: 0.5 mg/kg/injection, schedule: Q01DX009 (ip), vehicle: saline
[2] = dose: 1.0 mg/kg/injection, schedule: Q01DX009 (ip), vehicle: saline
[3] = dose: 2.0 mg/kg/injection, schedule: Q01DX009 (ip), vehicle: saline
[4] = dose: 7.5 mg/kg/injection, schedule: Q01DX009 (ip), vehicle: saline
[5] = dose: 15.0 mg/kg/injection, schedule: Q01DX009 (ip), vehicle: saline
[6] = dose: 0.13 mg/kg/injection, schedule: Q01DX009 (ip), vehicle: saline

COc1cc(NS(C)(=O)=O)ccc1Nc1c2cccc(C)c2nc2c(C)cccc12
T/C (dose: 25.0 mg/kg/injection, schedule: Q04DX003 (ip), vehicle: Klucel (hydroxypropylcellulose) (HPC)): 97 % of control | T/C (dose: 25.0 mg/kg/injection, schedule: Q04DX003 (ip), vehicle: saline): 104 % of control | T/C (dose: 50.0 mg/kg/injection, schedule: Q04DX003 (ip), vehicle: Klucel (hydroxypropylcellulose) (HPC)): 94 % of control | T/C (dose: 50.0 mg/kg/injection, schedule: Q04DX003 (ip), vehicle: saline): 116 % of control | T/C (dose: 100.0 mg/kg/injection, schedule: Q04DX003 (ip), vehicle: saline): 95 % of control | T/C (dose: 200.0 mg/kg/injection, schedule: Q04DX003 (ip), vehicle: saline): 104 % of control

O=NN(CCCl)C(=O)NCCCl
T/C [1]: 104 % of control and 112 % of control | T/C [2]: 109 % of control and 113 % of control | T/C (dose: 1.87 mg/kg/injection, schedule: Q01DX009 (ip), vehicle: saline): 120 % of control | T/C [3]: 111 % of control and 112 % of control | T/C (dose: 2.5 mg/kg/injection, schedule: Q04DX003 (ip), vehicle: saline sonified): 108 % of control | T/C (dose: 3.8 mg/kg/injection, schedule: Q01DX009 (ip), vehicle: saline): 108 % of control | T/C (dose: 5.0 mg/kg/injection, schedule: Q01DX009 (ip), vehicle: other): 158 % of control | T/C [4]: 150 % of control | T/C (dose: 8.0 mg/kg/injection, schedule: Q01DX009 (ip), vehicle: saline): 172 % of control and 188 % of control | T/C (dose: 10.0 mg/kg/injection, schedule: Q04DX003 (ip), vehicle: saline sonified): 175 % of control | T/C [5]: 91 % of control and 108 % of control

O=NN(CCCl)C(=O)NC1CCCCC1
T/C (dose: 2.0 mg/kg/injection, schedule: Q01DX009 (ip), vehicle: Klucel (hydroxypropylcellulose) (HPC)): 116 % of control | T/C (dose: 2.4 mg/kg/injection, schedule: Q01DX001 (ip), vehicle: other): 116 % of control | T/C (dose: 4.0 mg/kg/injection, schedule: Q01DX009 (ip), vehicle: other): 124 % of control | T/C (dose: 4.7 mg/kg/injection, schedule: Q01DX001 (ip), vehicle: other): 100 % of control | T/C [4]: 118 % of control | T/C (dose: 8.0 mg/kg/injection, schedule: Q01DX009 (ip), vehicle: Klucel (hydroxypropylcellulose) (HPC)): 161 % of control | T/C (dose: 8.0 mg/kg/injection, schedule: Q04DX003 (ip), vehicle: Klucel (hydroxypropylcellulose) (HPC)): 102 % of control | T/C (dose: 9.5 mg/kg/injection, schedule: Q01DX001 (ip), vehicle: other): 121 % of control | T/C (dose: 13.0 mg/kg/injection, schedule: Q01DX001 (ip), vehicle: other): 118 % of control | T/C [5]: 150 % of control | T/C (dose: 16.0 mg/kg/injection, schedule: Q01DX009 (ip), vehicle: Klucel (hydroxypropylcellulose) (HPC)): 154 % of control | T/C (dose: 16.0 mg/kg/injection, schedule: Q01DX009 (ip), vehicle: other): 118 % of control | T/C (dose: 16.0 mg/kg/injection, schedule: Q01DX009 (ip), vehicle: saline with Tween-80): 213 % of control | T/C (dose: 16.0 mg/kg/injection, schedule: Q04DX003 (ip), vehicle: Klucel (hydroxypropylcellulose) (HPC)): 102 % of control | T/C (dose: 17.8 mg/kg/injection, schedule: Q01DX001 (ip), vehicle: Klucel (hydroxypropylcellulose) (HPC)): 113 % of control | T/C (dose: 18.9 mg/kg/injection, schedule: Q01DX001 (ip), vehicle: other): 123 % of control | T/C (dose: 30.0 mg/kg/injection, schedule: Q01DX009 (ip), vehicle: saline): 290 % of control | T/C (dose: 32.0 mg/kg/injection, schedule: Q01DX009 (ip), vehicle: Klucel (hydroxypropylcellulose) (HPC)): 95 % of control | T/C (dose: 32.0 mg/kg/injection, schedule: Q04DX003 (ip), vehicle: saline): 220 % of control | T/C (dose: 36.0 mg/kg/injection, schedule: Q01DX001 (ip), vehicle: Klucel (hydroxypropylcellulose) (HPC)): 224 % of control | T/C (dose: 36.0 mg/kg/injection, schedule: Q01DX001 (ip), vehicle: other): 338 % of control | T/C (dose: 37.8 mg/kg/injection, schedule: Q01DX001 (ip), vehicle: other): 173 % of control | T/C (dose: 40.0 mg/kg/injection, schedule: Q01DX001 (ip), vehicle: Klucel (hydroxypropylcellulose) (HPC)): 150 % of control | T/C (dose: 60.0 mg/kg/injection, schedule: Q01DX001 (ip), vehicle: Klucel (hydroxypropylcellulose) (HPC)): 202 % of control and 212 % of control | T/C (dose: 90.0 mg/kg/injection, schedule: Q01DX001 (ip), vehicle: Klucel (hydroxypropylcellulose) (HPC)): 90 % of control

CCC(C)N(C)/N=N/c1nc[nH]c1C(N)=O (stereo not drawn)
T/C (dose: 16.0 mg/kg/injection, schedule: Q01DX005 (ip), vehicle: saline with Tween-80): 102 % of control | T/C (dose: 32.0 mg/kg/injection, schedule: Q01DX005 (ip), vehicle: saline with Tween-80): 106 % of control | T/C (dose: 64.0 mg/kg/injection, schedule: Q01DX005 (ip), vehicle: saline with Tween-80): 112 % of control | T/C (dose: 128.0 mg/kg/injection, schedule: Q01DX005 (ip), vehicle: saline with Tween-80): 107 % of control

COc1ccc2c(c1)CCC(c1ccccc1)=C2c1ccc(OCCN2CCCC2)cc1
T/C (dose: 3.0 mg/kg/injection, schedule: Q01DX005 (ip), vehicle: Klucel (hydroxypropylcellulose) (HPC)): 97 % of control | T/C (dose: 6.0 mg/kg/injection, schedule: Q01DX005 (ip), vehicle: Klucel (hydroxypropylcellulose) (HPC)): 97 % of control | T/C (dose: 12.0 mg/kg/injection, schedule: Q01DX005 (ip), vehicle: Klucel (hydroxypropylcellulose) (HPC)): 95 % of control and 105 % of control | T/C (dose: 24.0 mg/kg/injection, schedule: Q01DX005 (ip), vehicle: Klucel (hydroxypropylcellulose) (HPC)): 124 % of control and 96 % of control and 108 % of control | T/C (dose: 48.0 mg/kg/injection, schedule: Q01DX005 (ip), vehicle: Klucel (hydroxypropylcellulose) (HPC)): 92 % of control and 112 % of control | T/C (dose: 96.0 mg/kg/injection, schedule: Q01DX005 (ip), vehicle: Klucel (hydroxypropylcellulose) (HPC)): 100 % of control

COc1cccc2c1C(=O)c1c(O)c3c(c(O)c1C2=O)C[C@@](O)(C(C)=O)C[C@@H]3OC1CC(N)C(O)C(C)O1 (stereo partly drawn)
T/C [6]: 104 % of control | T/C (dose: 0.25 mg/kg/injection, schedule: Q01DX009 (ip), vehicle: saline): 116 % of control and 87 % of control and 109 % of control | T/C (dose: 0.25 mg/kg/injection, schedule: Q03HX008 (ip), vehicle: saline): 92 % of control | T/C [1]: 91 % of control and 104 % of control and 109 % of control | T/C (dose: 0.5 mg/kg/injection, schedule: Q01DX009 (ip), vehicle: water): 90 % of control | T/C (dose: 0.5 mg/kg/injection, schedule: Q03HX008 (ip), vehicle: saline): 100 % of control | T/C [2]: 100 % of control | T/C (dose: 1.0 mg/kg/injection, schedule: Q01DX009 (ip), vehicle: water): 109 % of control | T/C (dose: 1.0 mg/kg/injection, schedule: Q03HX008 (ip), vehicle: saline): 100 % of control | T/C [3]: 100 % of control | T/C (dose: 2.0 mg/kg/injection, schedule: Q01DX009 (ip), vehicle: water): 100 % of control

CS(C)=O
T/C (dose: 1000.0 mg/kg/injection, schedule: Q01DX005 (ip), vehicle: saline): 103 % of control | T/C (dose: 2000.0 mg/kg/injection, schedule: Q01DX005 (ip), vehicle: saline): 97 % of control and 100 % of control and 108 % of control | T/C (dose: 4000.0 mg/kg/injection, schedule: Q01DX005 (ip), vehicle: saline): 101 % of control and 109 % of control and 114 % of control

CC[C@]1(O)C[C@H]2CN(CCc3c([nH]c4ccccc34)[C@@](C(=O)OC)(c3cc4c(cc3OC)N(C=O)[C@H]3[C@@](O)(C(=O)OC)[C@H](OC(C)=O)[C@]5(CC)C=CCN6CC[C@]43[C@@H]65)C2)C1
T/C (dose: 0.02 mg/kg/injection, schedule: Q01DX009 (ip), vehicle: saline): 96 % of control | T/C (dose: 0.03 mg/kg/injection, schedule: Q01DX009 (ip), vehicle: saline): 96 % of control | T/C (dose: 0.06 mg/kg/injection, schedule: Q01DX009 (ip), vehicle: saline): 92 % of control and 95 % of control | T/C [6]: 117 % of control and 108 % of control | T/C (dose: 0.26 mg/kg/injection, schedule: Q01DX009 (ip), vehicle: saline): 100 % of control

COc1cc(C[C@H]2c3cc(OC)c(OC)cc3CCN2C)c(Oc2cc3c(cc2OC)-c2c(OC)c(OC)cc4c2[C@H](C3)N(C)CC4)cc1OC
T/C (dose: 50.0 mg/kg/injection, schedule: Q01DX005 (ip), vehicle: Klucel (hydroxypropylcellulose) (HPC)): 120 % of control and 94 % of control | T/C (dose: 100.0 mg/kg/injection, schedule: Q01DX005 (ip), vehicle: Klucel (hydroxypropylcellulose) (HPC)): 108 % of control

CN(C)N=Nc1ccnc2c(Cl)cccc12
T/C (dose: 3.12 mg/kg/injection, schedule: Q01DX009 (ip), vehicle: other): 110 % of control | T/C (dose: 6.25 mg/kg/injection, schedule: Q01DX009 (ip), vehicle: other): 116 % of control | T/C (dose: 12.5 mg/kg/injection, schedule: Q01DX009 (ip), vehicle: other): 110 % of control | T/C (dose: 25.0 mg/kg/injection, schedule: Q01DX009 (ip), vehicle: other): 108 % of control | T/C (dose: 50.0 mg/kg/injection, schedule: Q01DX009 (ip), vehicle: other): 112 % of control
